From patent US8183263B2 (priority 2007, dated 2012)

What follows are molecules tested on HCV replicon (assay: HCV replicon replication assay (NPT level by captured ELISA)). Conditions: Hepatitis C virus, 72 h; Huh-7 HCV replicon-containing cells, three days incubation; read-out: Activity (inhibition of HCV replicon replication).
Type: cell-based
In short: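 Huh-7 cells carrying HCV subgenomic replicon (NS3–NS5B, neo reporter) treated 3 days at 37 °C with 6 concentrations from 10 to 0.03 micromolar in G418-free medium, equal DMSO across wells. Replication measured on day four as NPTII level by in-cell captured ELISA on fixed cells; interferon alpha as positive control.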

`CCCCCCCCOc1ccc(Nc2nc(-c3cnccn3)c(Cl)s2)cc1C(F)(F)F` [Cmp 162, 5-chloro-N-(4-(octyloxy)-3-(trifluoromethyl)phenyl)-4-(pyrazin-2-yl)thiazol-2-amine] and `CCCCCCCCOc1cc(Nc2nc(-c3cnc(OC)nc3)c(F)s2)ccc1C(F)(F)F` [Cmp 88, 5-fluoro-4-(2-methoxypyrimidin-5-yl)-N-(3-(octyloxy)-4-(trifluoromethyl)phenyl)thiazol-2-amine] cannot be ordered by EC50: under 1000 nM for the first, under 1000 nM for the second.

`CCc1ccc(Oc2ccc(Nc3nc(-c4cnc(OC)nc4)cs3)cc2C(F)(F)F)cc1` [Cmp 53, N-(4-(4-ethylphenoxy)-3-(trifluoromethyl)phenyl)-4-(2-methoxypyrimidin-5-yl)thiazol-2-amine] and `CCCCCCc1ccc(Nc2nc(-c3cnc(OC)nc3)cs2)cc1C(F)(F)F` [Cmp 113, N-(4-hexyl-3-(trifluoromethyl)phenyl)-4-(2-methoxypyrimidin-5-yl)thiazol-2-amine] cannot be ordered by EC50: under 1000 nM for the first, under 1000 nM for the second.

First: CCCCCOc1cc(Nc2nc(-c3cccnc3)c(F)s2)ccc1C(F)(F)F [Cmp 79, 5-fluoro-N-(3-(pentyloxy)-4-(trifluoromethyl)phenyl)-4-(pyridin-3-yl)thiazol-2-amine]
Second: CC/C=C\CCCCOc1ccc(Nc2nc(-c3cccnc3)c(F)s2)cc1C(F)(F)F [Cmp 165, (Z)-5-fluoro-N-(4-(oct-5-enyloxy)-3-(trifluoromethyl)phenyl)-4-(pyridin-3-yl)thiazol-2-amine]
The EC50 of the first is higher: 1000 to 10000 nM for the first, under 1000 nM for the second.

`Fc1sc(Nc2ccc(OCCC#CC3CCCC3)c(C(F)(F)F)c2)nc1-c1cccnc1` [Cmp 191, N-(4-(4-cyclopentylbut-3-ynyloxy)-3-(trifluoromethyl)phenyl)-5-fluoro-4-(pyridin-3-yl)thiazol-2-amine] and `CCCCCCCC(C)Oc1ccc(Nc2nc(-c3cccnc3)c(F)s2)cc1C(F)(F)F` (stereo not shown) [Cmp 218, 5-fluoro-N-(4-(nonan-2-yloxy)-3-(trifluoromethyl)phenyl)-4-(pyridin-3-yl)thiazol-2-amine] cannot be ordered by EC50: under 1000 nM for the first, under 1000 nM for the second.

Compared with `CCCCCCCCOc1ccc(N(C)c2nc(-c3cccnc3)c(F)s2)cc1C(F)(F)F` [Cmp 159, 5-fluoro-N-methyl-N-(4-(octyloxy)-3-(trifluoromethyl)phenyl)-4-(pyridin-3-yl)thiazol-2-amine], `CCCCCCCCc1ccc(N(C)c2nc(-c3cccnc3)c(F)s2)cc1C(F)(F)F` [Cmp 160, 5-fluoro-N-methyl-N-(4-octyl-3-(trifluoromethyl)phenyl)-4-(pyridin-3-yl)thiazol-2-amine] is higher in EC50: under 1000 nM for the first, 1000 to 10000 nM for the second.

`Fc1ccc(C#CCCOc2ccc(Nc3nc(-c4cccnc4)cs3)cc2C(F)(F)F)cc1` [Cmp 24, N-(4-(4-(4-fluorophenyl)but-3-ynyloxy)-3-(trifluoromethyl)phenyl)-4-(pyridin-3-yl)thiazol-2-amine] and `FC(F)(F)c1cc(Nc2nc(-c3cccnc3)cs2)ccc1CCCOc1ccc(Cl)cc1` [Cmp 103, N-(4-(3-(4-chlorophenoxy)propyl)-3-(trifluoromethyl)phenyl)-4-(pyridin-3-yl)thiazol-2-amine] cannot be ordered by EC50: under 1000 nM for the first, under 1000 nM for the second.

With `O=c1cc(-c2ccccc2)oc2ccc(Nc3nc(-c4cccnc4)cs3)cc12` [Cmp 148, 2-phenyl-6-(4-(pyridin-3-yl)thiazol-2-ylamino)-4H-chromen-4-one] the EC50 was over 10000 nM.
